The nature of data set [1]: 1-Octanol-saturated McIlvaine buffer partition coefficient, log P of the compound at 80 uM at pH 6.01 by spectrophotometric analysis. The format is physicochemical. As to conditions: 1-octanol/McIlvaine buffer; call rule not given here.
Data set [2] relates to Trichomonas vaginalis. Kind of data set: Antimicrobial activity against Trichomonas vaginalis ATCC 30001 assessed as growth inhibition after 48 hrs under anaerobic conditions by microscopic analysis. In kind it is functional. As to conditions: ATCC 30001, 48 h.
Data set [3] relates to Clostridium pasteurianum. As to the kind of experiment: Antimicrobial activity against Clostridium pasteurianum ATCC 6013 assessed as growth inhibition after 24 hrs under anaerobic conditions by microscopic analysis. The format is functional. As to conditions: ATCC 6013, 24 h.
The nature of data set [4]: Effect on magnitude of electroreduction potential (Ep) of clostridial ferridoxin by alternating current polarographic technique. In kind it is physicochemical.
The nature of data set [5]: Decrease in current height for electroreduction of S-Fe bonding in clostridial ferridoxin assessed as alternating current reduction peak potential at 32 uM by polarographic technique. In kind it is physicochemical.

The source of these data is ChEMBL document CHEMBL3244002, “Activity-electroreduction relationship of antimicrobial metronidazole analogues” (J Med Chem, 1978).

In brackets after ≈: the same amount, converted by molar mass.

Broadly, the logD is lipophilicity at a set pH, counting ionised and neutral species. Broadly, the MIC is the lowest concentration that inhibits growth of the organism. On to `Cc1ncc([N+](=O)[O-])n1CCCl`, for which, in data set [1], the logD at 80 µM is 0.879. The MIC was found to be 0.195 µg/mL (≈ 1.03 µM) in data set [2] and 0.39 µg/mL (≈ 2.06 µM) in data set [3].

In data set [1], `CC(=O)OCCn1c([N+](=O)[O-])cnc1C` gave a log distribution coefficient (logD) at 80 µM of 0.301. Besides, the MIC in data set [2] worked out at 0.098 µg/mL (≈ 0.46 µM); in data set [3], 0.39 µg/mL (≈ 1.83 µM).

As to `Cc1ncc([N+](=O)[O-])n1CCSC(=S)N(C)C`, in data set [1], the logD at 80 µM came out at 1.28. In addition, the Activity result is listed as “Not Active” in data set [4] and 0.533 V in data set [5]. Besides, the values for the MIC in data set [2] and in data set [3] were 0.195 µg/mL (≈ 0.711 µM) and 0.683 µg/mL (≈ 2.49 µM), respectively.

In data set [1], `Cc1ncc([N+](=O)[O-])n1CCN=[N+]=[N-]` registered a logD at 80 µM of 0.755. Also, the minimal inhibitory concentration (MIC) was 0.341 µg/mL (≈ 1.74 µM) in data set [2] and 0.39 µg/mL (≈ 1.99 µM) in data set [3].

In data set [1], `Cc1ncc([N+](=O)[O-])n1CCOC(=O)N(C)C` displayed a logD at 80 µM of 0.455. For the same molecule, the MIC in data set [2] was 0.195 µg/mL (≈ 0.805 µM); in data set [3], 0.39 µg/mL (≈ 1.61 µM).

On to `Cc1ncc([N+](=O)[O-])n1CCS(=O)(=O)[O-].[Na+]`, for which the pH-dependent lipophilicity (logD) at 80 µM in data set [1] is -2.05. Also, the minimum inhibitory concentration (MIC) in data set [2] was determined as 6.25 µg/mL; in data set [3], 1.17 µg/mL.

On to `CC(=O)NCCn1c([N+](=O)[O-])cnc1C`, for which the logD at 80 µM in data set [1] was -0.469. Further, the figures for the minimal inhibitory concentration (MIC) in data set [2] and in data set [3] were 10.9 µg/mL (≈ 51.6 µM) and 0.78 µg/mL (≈ 3.68 µM), respectively.

`Cc1ncc([N+](=O)[O-])n1CCSc1ccc(Cl)cc1`: the logD at 80 µM in data set [1] was determined as 1.47. Besides, the MIC came to 12.5 µg/mL (≈ 42 µM) in data set [2] and 5.47 µg/mL (≈ 18.4 µM) in data set [3].

In the case of `Cc1ncc([N+](=O)[O-])n1CCO` [METRONIDAZOLE], in data set [1], the logD at 80 µM was -0.051. Besides, the figures for the MIC in data set [2] and in data set [3] were 0.098 µg/mL (≈ 0.573 µM) and 0.244 µg/mL (≈ 1.43 µM), respectively.
